This data set in a line: Dynamic viscosity of crude/dimethyl sulfide blends (rheometer, closed cup). Format: physicochemical. As to the method: The quality of dimethyl sulfide as an oil recovery agent based on the crude oil viscosity lowering properties of dimethyl sulfide was evaluated. Three crude oils having widely disparate viscosity characteristics—an African Waxy crude, a Middle Eastern asphaltic crude, and a Canadian asphaltic crude—were blended with dimethyl sulfide.
A control sample of each crude was prepared containing no dimethyl sulfide, and samples of each crude were prepared and blended with dimethyl sulfide to prepare crude samples containing increasing concentrations of dimethyl sulfide. Each sample of each of the crudes was heated to 60° C. to dissolve any waxes therein and to permit weighing of a homogeneous liquid, weighed, allowed to cool overnight, then blended with a selected quantity of dimethyl sulfide. The samples of the crude/dimethyl sulfide blend were then heated to 60° C. and mixed to ensure homogeneous blending of the dimethyl sulfide in the samples. Absolute (dynamic) viscosity measurements of each of the samples were taken using a rheometer and a closed cup sensor assembly. Viscosity measurements of each of the samples of the West African waxy crude and the Middle Eastern asphaltic crude were taken at 20° C., 40° C., 60° C., 80° C., and then again at 20° C. after cooling from 80° C., where the second measurement at 20° C. is taken to measure the viscosity without the presence of waxes since wax formation occurs slowly enough to permit viscosity measurement at 20° C. without the presence of wax. Viscosity measurements of each of the samples of the Canadian asphaltic crude were taken at 5° C., 10° C., 20° C., 40° C., 60° C., 80° C.

The structures appear in SMILES notation.

With `CSC` [Dimethyl Sulfide, dimethyl sulfide], the Viscosity by setting is: (DMS 1.43 wt. %, 20° C.) 212525 mPa s; (DMS 1.43 wt. %, 40° C.) 14721 mPa s; (DMS 1.43 wt. %, 60° C.) 2209 mPa s; (DMS 1.43 wt. %, 80° C.) 538 mPa s; (DMS 2.07 wt. %, 20° C.) 134880 mPa s; (DMS 2.07 wt. %, 40° C.) 10523 mPa s. For the same compound, the Viscosity reads like this: (DMS 2.07 wt. %, 60° C.) 1747 mPa s; (DMS 2.07 wt. %, 80° C.) 427 mPa s; (DMS 4.87 wt. %, 20° C.) 28720 mPa s; (DMS 4.87 wt. %, 40° C.) 3235 mPa s; (DMS 4.87 wt. %, 60° C.) 985 mPa s; (DMS 4.87 wt. %, 80° C.) 328 mPa s.

Values taken from patent US20140000884A1, “PETROLEUM RECOVERY PROCESS AND SYSTEM” (Shell Oil Company, priority 2012, published 2014).
